# Read-outs that look alike come from different tables or passages of the source. Marks after values point to notes of the source that are not given here.
# Assays:
# Mucor hiemalis DSM 2656 = assay: MIC serial dilution assay; assay type: cell-based; parameters: key: (-): No inhibition
# Description: (§1) The Minimum Inhibitory Concentration (MIC) of the isolated metabolites (1–8) was evaluated using serial dilution assays in a 96-well microtiter plate against a panel of Gram-positive bacteria, namely Bacillus subtilis DSM 10, Mycobacterium smegmatis ATCC 700084 and Staphylococcus aureus DSM 346; Gram-negative bacteria, including Acinetobacter baumannii DSM 30008, Chromobacterium violaceum DSM 30191, Escherichia coli DSM 1116 and Pseudomonas aeruginosa PA14 and fungal cultures of Candida albicans DSM 1665, Mucor hiemalis DSM 2656, Rhodotorula glutinis DSM 10134, Schizosaccharomyces pombe DSM 70572 and Wickerhamomyces anomalus DSM 6766, according to previously described protocols. The MTT-based cytotoxicity assay was performed against several cancer cell lines (human endocervical adenocarcinoma KB 3.1, mouse fibroblasts L929, squamous cancer A431, breast cancer MCF-7, lung cancer A549, ovary cancer SK-OV-3, and prostate cancer PC-3) in accordance with our previously established protocols.
# [1] = tested on: Staphylococcus aureus DSM 346; assay: MIC serial dilution assay; assay type: cell-based; parameters: key: (-): No inhibition
# Description: as §1
# [2] = tested on: Candida albicans DSM 1665; assay: MIC serial dilution assay; assay type: cell-based; parameters: key: (-): No inhibition; conditions: starting concentration 66.7 μg/mL
# Description: as §1
# [3] = tested on: Wickerhamomyces anomalus DSM 6766; assay: MIC serial dilution assay; assay type: cell-based; parameters: key: (-): No inhibition
# Description: as §1
# [4] = tested on: Chromobacterium violaceum DSM 30191; assay: MIC serial dilution assay; assay type: cell-based; parameters: key: (-): No inhibition; conditions: starting concentration 66.7 μg/mL
# Description: as §1
# [5] = tested on: Rhodotorula glutinis DSM 10134; assay: MIC serial dilution assay; assay type: cell-based; parameters: key: (-): No inhibition; conditions: Rhodoturula glutinis, starting concentration 66.7 μg/mL
# Description: as §1
# [6] = tested on: Mycobacterium smegmatis ATCC 700084; assay: MIC serial dilution assay; assay type: cell-based; parameters: key: (-): No inhibition
# Description: as §1
# [7] = tested on: Pseudomonas aeruginosa PA14; assay: MIC serial dilution assay; assay type: cell-based; parameters: key: (-): No inhibition
# Description: as §1
# [8] = tested on: Schizosaccharomyces pombe DSM 70572; assay: MIC serial dilution assay; assay type: cell-based; parameters: key: (-): No inhibition
# Description: as §1
# Bacillus subtilis DSM 10 = assay: MIC serial dilution assay; assay type: cell-based; parameters: key: (-): No inhibition
# Description: as §1
# [9] = tested on: Escherichia coli DSM 1116; assay: MIC serial dilution assay; assay type: cell-based; parameters: key: (-): No inhibition; conditions: starting concentration 66.7 μg/mL
# Description: as §1
# [10] = tested on: Acinetobacter baumannii DSM 30008; assay: MIC serial dilution assay; assay type: cell-based; parameters: key: (-): No inhibition; conditions: Acinetobacter baumanii, starting concentration 66.7 μg/mL
# Description: as §1
# mouse fibroblasts L929 = assay: MTT-based cytotoxicity assay; assay type: cell-based
# Description: as §1
# [11] = tested on: human endocervical adenocarcinoma KB 3.1; assay: MTT-based cytotoxicity assay; assay type: cell-based
# Description: as §1
# [12] = tested on: panel of bacteria and fungi; assay: Antimicrobial serial dilution assay, whole panel; assay type: cell-based; conditions: result in words
# Description: as §1
# mammalian cell lines = assay: cells; assay type: cell-based
# Description: as §1
# ovary cancer SK-OV-3 = assay: MTT-based cytotoxicity assay; assay type: cell-based
# Description: as §1
# breast cancer MCF-7 = assay: MTT-based cytotoxicity assay; assay type: cell-based
# Description: as §1
# prostate cancer PC-3 = assay: MTT-based cytotoxicity assay; assay type: cell-based
# Description: as §1
# lung cancer A549 = assay: MTT-based cytotoxicity assay; assay type: cell-based
# Description: as §1
# squamous cancer A431 = assay: MTT-based cytotoxicity assay; assay type: cell-based
# Description: as §1
# MptpB = conditions: result in words; ref 63 (Cui et al.); cited from earlier work
# [13] = DSM2656, starting concentration 66.7 μg/mL, read-out: MIC
# [14] = DSM346, starting concentration 66.7 μg/mL, read-out: MIC
# [15] = starting concentration 66.7 μg/mL
# [16] = DSM10, starting concentration 66.7 μg/mL, read-out: MIC
# [17] = Mus musculus, starting concentration 37 µg/mL, read-out: IC50
# [18] = Homo sapiens, KB 3-1, KB3.1, starting concentration 37 µg/mL, read-out: IC50
# [19] = Rhodotorula glutinis, DSM10134, read-out: MIC
# [20] = DSM70572, starting concentration 66.7 μg/mL, read-out: MIC
# [21] = Homo sapiens, SK-OV-3, SKOV-3, starting concentration 37 µg/mL, read-out: IC50
# [22] = Homo sapiens, MCF7, MCF-7, starting concentration 37 µg/mL, read-out: IC50
# [23] = PC-3, starting concentration 37 µg/mL, read-out: IC50
# [24] = Homo sapiens, starting concentration 37 µg/mL, read-out: IC50
# [25] = Homo sapiens, A-431, A431, starting concentration 37 µg/mL, read-out: IC50
# [26] = starting concentration 37 µg/mL, read-out: IC50
Compound,MIC (Mucor hiemalis DSM 2656; [13]) [µg/mL],"MIC [1, 14] [µg/mL]",MIC [2],"MIC [3, 15]",MIC [4],MIC [5],"MIC [6, 15]","MIC [7, 15]","MIC [8, 15]",MIC (Bacillus subtilis DSM 10; [16]) [µg/mL],MIC [9],MIC [10],IC50 (mouse fibroblasts L929; [17]) [µM],"IC50 [11, 18] [µM]",also measured
"CC(C)=CCc1ccc(O)c2c1C(O)(c1cc(C)cc3c1O[C@H](C(C)(C)O)CO3)OC2 (mixture of isomers) [Compound 3, isoprenylisobenzofuran C1/C2]",66.6,33.3,-,-,-,-,-,-,-,33.3,-,-,51.6,32.9,
"CC(C)=CCc1ccc(O)c2c1C(c1cc(C)cc3c1O[C@H](C(C)(C)O)CO3)NC2=O (mixture of isomers) [Compound 5, diaporisoindole A/B]",66.6,66.6,-,-,-,,-,-,,66.6,-,-,54.4,22,"MIC [5, 19]: 66.6 µg/mL; MIC [8, 20]: 33.3 µg/mL"
"O=C(O)c1cn(C2CC2)c2cc(N3CCNCC3)c(F)cc2c1=O [Ciprobay, reference compound]",,,,,,,,,,,,,,,"MIC ([10]; Acinetobacter baumannii, DSM30008, read-out: MIC): 0.26 µg/mL"
"CCC(C)C1OC(=O)CNC(=O)CNC(=O)[C@H]([C@@H](C)O)NC(=O)C(C)C(O)CC(O)CC/C=C/C1C (stereo partly drawn) [Compound 1, eucalactam B]",,,-,-,-,-,-,-,-,,-,-,> 72,> 72,"MIC (Mucor hiemalis DSM 2656; [15]): -; MIC [1, 15]: -; MIC (Bacillus subtilis DSM 10; [15]): -; antimicrobial activity against the tested microorganisms [12]: devoid of any activity; cytotoxic effect (mammalian cell lines; mammalian cell lines, result in words): did not show any cytotoxic effect"
"CC(C)=CCc1ccc(O)c2c1C(O)(c1cc(C)cc3c1OC(C(C)(C)O)CO3)OC2=O (stereo not drawn) [Compound 2, isoprenylisobenzofuran B]",,,-,-,-,-,-,-,-,,-,-,> 84,> 84,"MIC (Mucor hiemalis DSM 2656; [15]): -; MIC [1, 15]: -; MIC (Bacillus subtilis DSM 10; [15]): -; antimicrobial activity against the tested microorganisms [12]: no activity; IC50 ([11]; KB3.1, starting concentration 37 µg/mL): slight inhibition"
"CC(C)=CCc1ccc(O)c2c1C(O)(c1cc(C)cc3c1O[C@H](C(C)(C)O)CO3)NC2=O (stereo partly drawn) [Compound 4, diaporisoindole F1/F2]",33.3,66.6,-,-,-,,-,-,,66.6,-,-,59.2,31.9,"MIC [5, 19]: 33.3 µg/mL; MIC [8, 20]: 33.3 µg/mL"
"CC(C)=CCc1ccc(O)c(C=O)c1C(=O)c1cc(C)cc2c1OC(C(C)(C)O)CO2 (stereo not drawn) [Compound 6, tenellone B]",16.6,16.6,-,,-,,-,-,,16.6,-,-,49.5,20,"MIC ([3]; Hansenula anomala, DSM6766, starting concentration 66.7 μg/mL, read-out: MIC): 66.6 µg/mL; MIC [5, 19]: 16.6 µg/mL; MIC [8, 20]: 66.6 µg/mL; IC50 (mammalian cell lines; A431, MCF-7, A549, SKOV-3 and PC-3, read-out: IC50, range over five other mammalian cell lines): 17.7 to 42.5 µM; IC50 (ovary cancer SK-OV-3; [21]): 42.5 µM; IC50 (breast cancer MCF-7; [22]): 17700 nM; IC50 (prostate cancer PC-3; [23]): 17900 nM; IC50 (lung cancer A549; [24]): 20800 nM; IC50 (squamous cancer A431; [25]): 19.3 µM"
"CCC(C)C=C(C)C=CC1=CC2=C(Cl)C(=O)C3(C)OC(=O)C(C(C)O)C3C2=CO1 (stereo not drawn) [Compound 7, isochromophilonol A1/A2]",8.3,66.6,-,-,-,-,,-,-,16.6,-,-,12.9,5.3,"MIC ([6]; Mycolicibacterium smegmatis, ATCC700084, starting concentration 66.7 μg/mL, read-out: MIC): 16.6 µg/mL; IC50 (ovary cancer SK-OV-3; [21]): 3.3 µM; IC50 (breast cancer MCF-7; [22]): 900 nM; IC50 (prostate cancer PC-3; [23]): 1100 nM; IC50 (lung cancer A549; [24]): 2300 nM; IC50 (squamous cancer A431; [25]): 4.1 µM"
"C/C(=C\c1csc(C)n1)[C@@H]1C[C@@H]2O[C@]2(C)CCC[C@H](C)[C@H](O)[C@@H](C)C(=O)C(C)(C)[C@@H](O)CC(=O)O1 [Epothilone B, reference compound]",,,,,,,,,,,,,,,"IC50 (mouse fibroblasts L929; Mus musculus): 0.00043 µM; IC50 (ovary cancer SK-OV-3; Homo sapiens, SK-OV-3): 9.9e-05 µM; IC50 ([11]; Homo sapiens, KB 3-1): 4.5e-05 µM; IC50 (breast cancer MCF-7; Homo sapiens, MCF7): 0.061 nM; IC50 (prostate cancer PC-3): 0.073 nM; IC50 (lung cancer A549; Homo sapiens): 0.069 nM; IC50 (squamous cancer A431; Homo sapiens, A-431): 5.5e-05 µM"
"CNC(C)C1CCC(N)C(OC2C(N)CC(N)C(OC3OCC(C)(O)C(NC)C3O)C2O)O1 (stereo not drawn) [Gentamicin, reference compound]",,,,,,,,,,,,,,,"MIC ([7]; PA14, starting concentration 66.7 μg/mL, read-out: MIC): 0.21 µg/mL"
"NC[C@H]1O[C@H](O[C@H]2[C@H](O)[C@@H](O[C@H]3O[C@H](CO)[C@@H](O)[C@H](N)[C@H]3O)[C@H](N)C[C@@H]2N)[C@H](O)[C@@H](O)[C@@H]1O [Kanamycin, reference compound]",,,,,,,1.7 ^k µg/mL,,,,,,,,
"C[C@@H]1[C@H](O)[C@@H](C)/C=C/C=C/CC/C=C/C=C/C=C/C=C/C(O[C@H]2O[C@H](C)[C@@H](O)[C@H](N)[C@@H]2O)CC2O[C@](O)(CC(O)C(O)CCC(O)CC(O)CC(O)CC(=O)O[C@H]1C)CC(O)C2C(=O)O (stereo partly drawn) [Nystatin, reference compound]",,,16.6 ^n µg/mL,8.3 ^n µg/mL,,4.2 ^n µg/mL,,,8.3 ^n µg/mL,,,,,,"MIC (Mucor hiemalis DSM 2656; [15]): 8.3 ^n µg/mL; MIC (Mucor hiemalis DSM 2656; starting concentration 66.7 μg/mL, listed as nystatin): 8.3 µg/mL"
"CN(C)[C@@H]1C(=O)C(C(N)=O)=C(O)[C@@]2(O)C(=O)C3=C(O)c4c(O)cccc4[C@@](C)(O)[C@H]3[C@H](O)[C@@H]12 [Oxytetracyclin, reference compound]",,,,,0.83 ^o µg/mL,,,,,,1.7 ^o µg/mL,,,,"MIC [1, 15]: 0.83 ^o µg/mL; MIC (Bacillus subtilis DSM 10; [15]): 8.3 ^o µg/mL"
CC(C)=CCc1ccc(O)c2c1[C@@H](c1cc(C)cc3c1O[C@H](C(C)(C)O)CO3)NC2=O [diaporisoindole A],,,,,,,,,,,,,,,inhibitory activity against MptpB (MptpB): potent inhibitory activity
beauvericin [Compound 8],,,-,-,-,66.6 µg/mL,8.3 µg/mL,-,33.3 µg/mL,,-,-,,,"MIC (Mucor hiemalis DSM 2656; [15]): 66.6 µg/mL; MIC [1, 15]: 8.3 µg/mL; MIC (Bacillus subtilis DSM 10; [15]): 8.3 µg/mL; IC50 (mouse fibroblasts L929; [26]): 2.8 µM; IC50 (ovary cancer SK-OV-3; SKOV-3, starting concentration 37 µg/mL, read-out: IC50): 3.3 µM; IC50 ([11]; KB3.1, starting concentration 37 µg/mL, read-out: IC50): 2.3 µM; IC50 (breast cancer MCF-7; MCF-7, starting concentration 37 µg/mL, read-out: IC50): 2000 nM; IC50 (prostate cancer PC-3; [23]): 1900 nM; IC50 (lung cancer A549; [26]): 2600 nM; IC50 (squamous cancer A431; A431, starting concentration 37 µg/mL, read-out: IC50): 2.4 µM"

# — article PMC10381184, “Unprecedented Antimicrobial and Cytotoxic Polyketides from Cultures of Diaporthe africana sp. nov” (Journal of Fungi, 2023)
